Assay results: the supplement of paper PMC10307832

Key:
Assay in all cases: relative viability (nuclei count vs DMSO), 5 days (fraction); higher = more cells survive
VE-821 + Bortezomib = compound: CS(=O)(=O)c1ccc(-c2cnc(N)c(C(=O)Nc3ccccc3)n2)cc1 [VE-821] + CC(C)C[C@H](NC(=O)[C@H](Cc1ccccc1)NC(=O)c1cnccn1)B(O)O [Bortezomib] (partner 0.002 µM)
Method in brief: (§1)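 Lung cancer cell lines, seeded in 1536-well plates, were treated the following day by pin tool with a single drug or with five library-drug doses (not always all listed) in √10 steps on top of a fixed anchor-drug dose. Cells were fixed and nuclei stained in one step after 5 days, and nuclei were counted. Relative viability is the nuclei count for treated wells divided by that for vehicle wells, reported as medians of duplicate plates.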

VE-821 + Luminespib = compound: CS(=O)(=O)c1ccc(-c2cnc(N)c(C(=O)Nc3ccccc3)n2)cc1 [VE-821] + CCNC(=O)c1noc(-c2cc(C(C)C)c(O)cc2O)c1-c1ccc(CN2CCOCC2)cc1 [Luminespib] (partner 0.01 µM)
Method in brief: as §1

VE-821 + Pictilisib = compound: CS(=O)(=O)c1ccc(-c2cnc(N)c(C(=O)Nc3ccccc3)n2)cc1 [VE-821] + CS(=O)(=O)N1CCN(Cc2cc3nc(-c4cccc5[nH]ncc45)nc(N4CCOCC4)c3s2)CC1 [Pictilisib] (partner 1 µM)
Method in brief: as §1

Ruxolitinib + Trametinib = compound: N#CC[C@H](C1CCCC1)n1cc(-c2ncnc3[nH]ccc23)cn1 [Ruxolitinib] + CC(=O)Nc1cccc(-n2c(=O)n(C3CC3)c(=O)c3c(Nc4ccc(I)cc4F)n(C)c(=O)c(C)c32)c1 [Trametinib] (partner 0.02 µM)
Method in brief: as §1

Cell Line	relative viability (VE-821 + Bortezomib; first compound 0.08 µM)	relative viability (VE-821 + Bortezomib; first compound 0.253 µM)	relative viability (VE-821 + Bortezomib; first compound 0.8 µM)	relative viability (VE-821 + Bortezomib; first compound 2.53 µM)	relative viability (VE-821 + Bortezomib; first compound 8 µM)	relative viability (VE-821 + Luminespib; first compound 0.08 µM)	relative viability (VE-821 + Luminespib; first compound 0.253 µM)	relative viability (VE-821 + Luminespib; first compound 0.8 µM)	relative viability (VE-821 + Luminespib; first compound 2.53 µM)	relative viability (VE-821 + Luminespib; first compound 8 µM)	relative viability (VE-821 + Pictilisib; first compound 0.08 µM)	relative viability (VE-821 + Pictilisib; first compound 0.253 µM)	relative viability (VE-821 + Pictilisib; first compound 0.8 µM)	relative viability (VE-821 + Pictilisib; first compound 2.53 µM)	relative viability (VE-821 + Pictilisib; first compound 8 µM)	relative viability (Ruxolitinib + Trametinib; first compound 0.08 µM)	relative viability (Ruxolitinib + Trametinib; first compound 0.253 µM)	relative viability (Ruxolitinib + Trametinib; first compound 0.8 µM)	relative viability (Ruxolitinib + Trametinib; first compound 2.53 µM)	relative viability (Ruxolitinib + Trametinib; first compound 8 µM)
LC-2-ad	1.19	1.06	0.569	1.17	1.07	1.18	1.09	1.19	1.24	1	0.704	0.392	0.545	0.514	0.373	0.879	0.896	0.878	0.663	0.577
NCI-H647	1.39	0.825	0.804	1.08	0.569	0.257	0.344	0.168	0.131	0.158	0.472	0.391	–	0.428	0.263	0.607	0.437	0.523	0.182	0.48
LCLC-97TM1	0.633	0.634	0.726	0.541	0.568	0.821	0.795	0.952	0.993	0.709	0.178	0.203	0.229	0.224	0.137	0.176	0.157	0.199	0.113	0.217
BEN	0.872	0.759	0.992	1.03	0.712	0.414	0.374	0.376	0.344	0.322	0.707	0.55	0.527	0.591	0.542	1.01	1.01	1.13	0.99	1.35
NCI-H650	0.828	0.709	0.961	0.753	1.02	0.986	0.94	0.662	0.883	0.798	0.882	0.927	0.731	0.985	0.88	0.972	1.05	0.935	0.681	0.962
EKVX	1.06	1.11	1.02	1.21	0.912	0.96	0.77	0.763	0.939	0.815	0.509	0.412	0.451	0.411	0.356	–	0.318	0.348	0.265	0.361
NCI-H2009	0.952	0.967	0.993	1.07	0.814	1.03	0.974	0.918	1.09	0.863	0.873	0.754	0.881	0.894	0.664	0.304	0.249	0.329	0.168	0.196
NCI-H23	1	0.991	1.14	0.829	0.323	0.202	0.223	0.214	0.236	0.213	0.554	0.458	0.506	0.469	0.277	0.371	0.354	0.436	0.241	0.35
LU99A	1.11	1.23	1.16	1.08	0.514	0.274	0.261	0.241	0.199	0.194	0.362	0.311	0.29	0.319	0.253	0.5	0.543	0.594	0.232	0.428
NCI-H1915	0.967	0.958	1.03	0.999	0.962	0.816	0.752	0.698	0.726	0.525	1.06	0.785	0.982	1.07	0.652	0.315	0.311	0.325	0.153	0.253
EMC-BAC-2	1.12	1.08	1.15	1.11	1.04	1.36	1.15	1.09	1.11	0.931	0.548	0.528	0.583	0.593	0.552	0.886	0.806	1.08	0.768	0.948
201T	1.11	1.06	1.07	1.07	1.06	1.06	1.03	1.06	1.06	0.934	0.723	0.626	0.65	0.698	0.559	0.753	0.803	0.927	0.907	0.922
NCI-H2228	1.23	0.931	1.2	0.824	0.635	0.125	0.165	0.131	0.132	0.0911	0.401	0.414	0.585	0.566	0.358	0.229	0.861	0.62	0.24	0.144
NCI-H441	0.622	0.967	0.552	0.705	0.405	0.289	0.386	0.602	0.307	0.363	0.56	0.527	0.537	0.519	0.352	0.478	0.373	0.572	0.415	0.513
NCI-H1437	0.504	0.523	0.46	0.592	0.4	1.19	1.15	1.06	1.19	0.878	0.448	0.352	0.458	0.396	0.3	0.528	0.632	0.732	0.564	0.455
EPLC-272H	0.955	0.927	1.12	1.13	0.814	0.265	0.301	0.179	0.288	0.221	0.427	0.32	0.347	0.399	0.309	0.322	0.334	0.41	0.286	0.337
